Source: ChEMBL document CHEMBL1764972, “Phomalevones A-C: dimeric and pseudodimeric polyketides from a fungicolous Hawaiian isolate of Phoma sp. (Cucurbitariaceae)” (J Nat Prod, 2011)
Converted amounts (≈) assume the structure as drawn. The source made the active and inactive calls. The rule behind the calls is not given here.

Experiments:
[1] = system: Bacillus subtilis; experiment: Antibacterial activity against Bacillus subtilis ATCC 6051 at 100 ug/disk by agar disk diffusion assay; type: functional; conditions: read-out: IZ
[2] = system: Staphylococcus aureus; experiment: Antibacterial activity against Staphylococcus aureus ATCC 29213 at 100 ug/disk by agar disk diffusion assay; type: functional; conditions: read-out: IZ
[3] = system: Aspergillus flavus; experiment: Antifungal activity against Aspergillus flavus NRRL 6541 at 200 ug/disk by agar disk diffusion assay; type: functional; conditions: read-out: IZ
[4] = system: Fusarium verticillioides; experiment: Antifungal activity against Gibberella moniliformis NRRL 25457 at 200 ug/disk by agar disk diffusion assay; type: functional; conditions: read-out: IZ
[5] = system: Fusarium verticillioides; experiment: Antifungal activity against Gibberella moniliformis NRRL 25457 by agar disk diffusion assay; type: functional, organism-based
[6] = system: Aspergillus flavus; experiment: Antifungal activity against Aspergillus flavus NRRL 6541 up to 25 ug/ml by agar disk diffusion assay; type: functional, organism-based
[7] = system: Aspergillus flavus; experiment: Antifungal activity against Aspergillus flavus NRRL 6541 by agar disk diffusion assay; type: functional, organism-based
[8] = system: Bacillus subtilis; experiment: Antibacterial activity against Bacillus subtilis ATCC 6051 at 25 ug/disk by agar disk diffusion assay; type: functional, organism-based
[9] = system: Staphylococcus aureus; experiment: Antibacterial activity against Staphylococcus aureus ATCC 29213 at 25 ug/disk by agar disk diffusion assay; type: functional, organism-based
[10] = system: Candida albicans; experiment: Antimicrobial activity against Candida albicans ATCC 14053 at 100 ug/disk by agar disk diffusion assay; type: functional; conditions: read-out: IZ
[11] = system: Escherichia coli; experiment: Antibacterial activity against Escherichia coli ATCC 25922 at 100 ug/disk by agar disk diffusion assay; type: functional; conditions: read-out: IZ

**Q.** Cc1cc2c(c(O)c1-c1c(C)cc3c(c1O)C(=O)C1=C(O)C=C[C@H](O)[C@]1(C)O3)C(=O)C1=C(O)C=CC(=O)[C@]1(C)O2 [PHOMALEVONE C] was tested. Which zone of inhibition at 100 µg/disc [1] did it give?
**A.** The zone of inhibition at 100 µg/disc was 34 mm.

**Q.** And the zone of inhibition at 100 µg/disc [2]?
**A.** Its zone of inhibition at 100 µg/disc is 22 mm.

**Q.** What about the zone of inhibition at 200 µg/disc [3] of the same compound?
**A.** Its zone of inhibition at 200 µg/disc is 10 mm.

**Q.** And the zone of inhibition at 200 µg/disc [4]?
**A.** Its zone of inhibition at 200 µg/disc is 10 mm.

**Q.** What about the MIC [5] of the same compound?
**A.** Its MIC is 10 µg/mL (≈ 18.4 µM).

**Q.** What about the Activity [6] of the same compound?
**A.** The Activity was “inactive”.

**Q.** And the IC50 [7]?
**A.** Its IC50 is 4 µg/mL (≈ 7.35 µM).

**Q.** How did the inhibition zone (IZ) [8] turn out when GENTAMICIN SULFATE was run?
**A.** The inhibition zone (IZ) was 20 mm.

**Q.** What about the inhibition zone (IZ) [9] of the same compound?
**A.** The inhibition zone (IZ) was 20 mm.

**Q.** With NYSTATIN as the compound, how does the MIC [5] read?
**A.** The MIC was 10 µg/mL.

**Q.** And the MIC [7]?
**A.** Its MIC is 10 µg/mL.

**Q.** Which zone of inhibition at 100 µg/disc [1] does the source give for Cc1cc(O)c(C(=O)c2c(O)ccc(O)c2C)c(O)c1-c1c(C)cc(O)c(C(=O)c2c(O)ccc(O)c2C)c1O [PHOMALEVONE B] here?
**A.** Its zone of inhibition at 100 µg/disc is 38 mm.

**Q.** What about the zone of inhibition at 100 µg/disc [2] of the same compound?
**A.** Its zone of inhibition at 100 µg/disc is 26 mm.

**Q.** And the zone of inhibition at 100 µg/disc [10]?
**A.** Its zone of inhibition at 100 µg/disc is 18 mm.

**Q.** What about the zone of inhibition at 100 µg/disc [11] of the same compound?
**A.** Its zone of inhibition at 100 µg/disc is 18 mm.

**Q.** Which results are given for Cc1cc2c(c(O)c1-c1c(C)cc3c(c1O)C(=O)C1=C(O)C=C[C@H](O)[C@]1(C)O3)C(=O)C1=C(O)C=C[C@H](O)[C@]1(C)O2 [PHOMALEVONE A]?
**A.** zone of inhibition at 100 µg/disc [1]: 36 mm; zone of inhibition at 100 µg/disc [2]: 23 mm
